From patent US12503713B1, “Stabilization of tryptamines by denaturing enzymes, optimizing ionization states, and controlling confounding variables” (Convergent Health Sciences LLC, priority 2025, dated 2025)

Experiments:
[1] = cited from earlier work
[2] = spontaneous dephosphorylation of phosphoryloxytryptamines in phosphate buffers, one hour at 85 degrees Celsius, HPLC at 220 nanometers (Example 1)
phosphatase enzyme = assay: colorimetric assay with a para-nitrophenyl phosphate substrate for residual phosphatase enzyme activity; type: biochemical, Psilocybe cubensis; details: supernatants of the extracts
Excerpt: The denaturation of relevant phosphatase enzymes may be assessed, for example, by performing a colorimetric assay with a para-nitrophenyl phosphate substrate. Para-nitrophenyl phosphate comprises a phosphorylated aromatic, which is chemically similar to the phosphorylated indole of a phosphoryloxytryptamine. Colorimetric assays performed with a para-nitrophenyl phosphate substrate therefore provide suitable methods to assess […] that are relevant to this disclosure.
(§1) The molecular weights of the analytes are determined by electrospray ionization mass spectroscopy (ESI-MS) operating in positive ion mode. The supernatants are also used for a colorimetric assay with a para-nitrophenyl phosphate substrate to identify residual phosphatase enzyme activity and for a colorimetric assay with a syringaldazine substrate to identify any residual laccase enzyme activity.

laccase enzyme = assay: colorimetric assay with a syringaldazine substrate for residual laccase enzyme activity; type: biochemical, Psilocybe cubensis; details: supernatants of the extracts
Excerpt: The denaturation of relevant laccase enzymes may be assessed, for example, by performing a colorimetric assay with a laccase enzyme substrate such as syringaldazine or 2,2′-azino-bis(3-ethylbenzothiazoline-6-sulfonate) (ABTS). Syringaldazine comprises an aromatic structure with pendant hydroxyl groups, which is chemically similar to the indole of a hydroxytryptamine, and ABTS comprises a benzothiazoline, which is chemically similar to the indole of tryptamines generally. Colorimetric assays performed with a syringaldazine or ABTS substrate therefore provide suitable methods to assess laccase activity that are relevant to this disclosure.
as §1

[3] = cited from earlier work; remark: listed apart in the source
[4] = pH of 2.0 relative to pH of 3.0
[5] = pH of 7.0 relative to pH of 6.0
[6] = pH of 3.0 relative to pH of 2.0
[7] = pH of 6.0 relative to pH of 7.0

Chitin
solubility in water [1]: insoluble in water

CN(C)CCc1c[nH]c2cccc(O)c12 [psilocin, 3-[2-(dimethylamino)ethyl]-1H-indol-4-ol]
absorbance detected for the hydroxytryptamine [2, 4]: greater absorbance
absorbance detected for the hydroxytryptamine [2, 5]: greater absorbance

CNCCc1c[nH]c2cccc(O)c12 [norpsilocin, 3-[2-(methylamino)ethyl]-1H-indol-4-ol]
absorbance detected for the hydroxytryptamine [2, 4]: greater absorbance
absorbance detected for the hydroxytryptamine [2, 5]: greater absorbance

OCCc1c[nH]c2ccccc12 [tryptophol]
solubility in water [1]: insoluble in water

CCCCCCCCCCCCOS(=O)(=O)[O-].[Na+] [sodium dodecyl sulfate]
phosphatase enzyme activity relative to the water control (phosphatase enzyme): significantly less
laccase enzyme activity relative to the water control (laccase enzyme): significantly less

C[N+](C)(C)CCc1c[nH]c2cccc(OP(=O)(O)O)c12 [aeruginascin, [2-(4-phosphonooxy-1H-indol-3-yl)ethyl]-trimethylazanium]
absorbance detected for the phosphoryloxytryptamine [2, 6]: Greater absorbance
absorbance detected for the phosphoryloxytryptamine [2, 7]: Greater absorbance

Cl.N=C(N)N [guanidinium, guanidinium chloride]
phosphatase enzyme activity relative to the water control (phosphatase enzyme): significantly less
laccase enzyme activity relative to the water control (laccase enzyme): significantly less

CNCCc1c[nH]c2cccc(OP(=O)(O)O)c12 [baeocystin, [2-(4-phosphonooxy-1H-indol-3-yl)ethyl]-methylazanium]
absorbance detected for the phosphoryloxytryptamine [2, 6]: Greater absorbance
absorbance detected for the phosphoryloxytryptamine [2, 7]: Greater absorbance

CN(C)CCc1c[nH]c2cccc(OP(=O)(O)O)c12 [psilocybin]
pKa of the azanium of psilocybin ([3]; conjugate acid of the amino): about 10.4
pKa of the dihydrogen phosphate of psilocybin (lowest pKa) ([3]; first phosphate pKa): about 1.3

NC(N)=O [urea]
phosphatase enzyme activity relative to the water control (phosphatase enzyme): significantly less
laccase enzyme activity relative to the water control (laccase enzyme): significantly less

C[N+](C)(C)CCc1c[nH]c2cccc(O)c12 [4-hydroxy-TMT, [2-(4-hydroxy-1H-indol-3-yl)ethyl]-trimethylazanium]
absorbance detected for the hydroxytryptamine [2, 4]: greater absorbance
absorbance detected for the hydroxytryptamine [2, 5]: greater absorbance

NCCc1c[nH]c2cccc(OP(=O)(O)O)c12 [norbaeocystin, 2-(4-phosphonooxy-1H-indol-3-yl)ethylazanium]
absorbance detected for the phosphoryloxytryptamine [2, 6]: Greater absorbance
absorbance detected for the phosphoryloxytryptamine [2, 7]: Greater absorbance

N.N.O=S(=O)(O)O [ammonium sulfate]
phosphatase enzyme activity relative to the water control (phosphatase enzyme): significantly less
laccase enzyme activity relative to the water control (laccase enzyme): significantly less

NCCc1c[nH]c2cccc(O)c12 [4-HT, 3-(2-aminoethyl)-1H-indol-4-ol]
absorbance detected for the hydroxytryptamine [2, 4]: greater absorbance
absorbance detected for the hydroxytryptamine [2, 5]: greater absorbance

polyethylene glycol 4-(2,4,4-trimethylpent-2-yl)phenyl ether [Triton X-100]
phosphatase enzyme activity relative to the water control (phosphatase enzyme): significantly less
laccase enzyme activity relative to the water control (laccase enzyme): significantly less

CCCCCCCCO[C@@H]1O[C@H](CO)[C@@H](O)[C@H](O)[C@H]1O [octyl glucoside, octyl β-D-glucopyranoside]
phosphatase enzyme activity relative to the water control (phosphatase enzyme): significantly less
laccase enzyme activity relative to the water control (laccase enzyme): significantly less

O=C(O)Cc1c[nH]c2ccccc12 [Indole-3-acetic acid, indole-3-acetic acid]
solubility in water [1]: insoluble in water
